According to the METLIN SMRT retention time set (Domingo-Almenara et al. 2019):

Assay: gradient 5% acetonitrile 3 min, to 50% in 2 min, to 85% in 15 min, held 3 min, 100 µL/min
Details: column: Zorbax Extend-C18 2.1 x 50 mm; eluents: water / acetonitrile, 0.1% formic acid
Method in brief: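 In both positive and negative ionization mode, a quadrupole time-of-flight mass spectrometer coupled to HPLC analyzed pure standards run in mixtures of ~100 molecules. The Zorbax Extend-C18 column (2.1 × 50 mm, 1.8 μm) was operated at 100 μL/min with water and acetonitrile, each containing 0.1% formic acid. The dead volume was 40 μL and the dwell volume 900 μL. Retention time came from adduct peaks that were computationally picked and individually inspected by hand.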

Row | Compound | RP-LC retention time [s]
1 | O=C(Cn1cccc(-c2nc(-c3ccc(F)cc3)no2)c1=O)Nc1cc(F)ccc1F | 915
2 | CN(C)S(=O)(=O)N1CC(c2nc(Cc3cccnc3)no2)C1 | 543
3 | COCCn1cc(CCNC(=O)Nc2ccc(Br)c(C)c2)c2cccnc21 | 821
4 | COc1ccc(-c2noc(-c3ccc(NCCCN4CCCC4)nn3)n2)cc1 | 642
5 | COc1ccc(Cl)cc1NC(=O)Cn1cccc1-c1nnc(C2CC2)o1 | 972
6 | CCCCN(C)CCCNC(=O)c1ccc2c(c1)NC(=O)C(C(C)CC)N2 (configuration not stated) | 612
7 | CCOc1cc(S(=O)(=O)Nc2ncccc2C)ccc1Br | 666
8 | CCc1ccc(OCC(=O)Nc2ccc(S(N)(=O)=O)cc2)c(Br)c1 | 836
9 | COc1cccc(NC(=O)N2CCCC(C)(C(=O)NCc3ccccc3C)C2)c1 (configuration not stated) | 890
10 | CCN(Cc1ccc(C)cc1)Cc1cc(=O)n2cc(Cl)ccc2n1 | 652
11 | CCc1ccccc1NC(=O)Cn1c(CC)nc2c(c1=O)CN(Cc1ccccc1)CC2 | 666
12 | COc1ccc2c(c1)c(CN1CCC(C(=O)NCCN3CCOCC3)CC1)cn2C | 553
13 | CC(C)CN1Cc2ccccc2-n2ccnc2C12CCN(C(=O)c1ccccc1F)CC2 | 650
14 | CCOc1cc2ncc(C#N)c(Nc3ccc(F)c(Cl)c3)c2cc1NC(=O)/C=C/CN(C)C | 727
15 | Cc1cc(C)n(C(C[N+](=O)[O-])c2ccc(Cl)cc2Cl)n1 (configuration not stated) | 1110
16 | CCc1ccccc1S(=O)(=O)N1CCC2(CC1)C(=O)N(CC)c1ccccc12 | 1130
17 | Cc1nc(C(N)=O)nc2ccccc12 | 657
18 | Cc1[nH]nc(-c2c(C)sc(C)c2S(=O)(=O)NCc2ccc(Br)cc2)c1C | 1130
19 | O=C1NCCCCCN(C(=O)Nc2ccccc2F)[C@H]2CCCC[C@@H]12 | 815
20 | CCn1nc(C)n2cc(S(=O)(=O)NCc3cccc(C)c3)cc2c1=O | 882
21 | CCC(C)NC(=O)CSc1nc2nc(C)cc(C)n2n1 (configuration not stated) | 650
22 | COC(=O)C(C)NC(=O)NCc1cccn1Cc1ccc(Cl)cc1 (configuration not stated) | 832
23 | CCn1cc2c3c(cccc31)CN(C(=O)Nc1cc(OC)c(OC)c(OC)c1)CC2 | 742
24 | CCCNC(=O)c1cn(-c2ccc(-c3nc(C(C)(C)C)no3)cn2)cn1 | 931

The next lines start with the values.

Row | RP-LC retention time [s] | Compound
25 | 669 | O=C(Nc1ccc(N2CCOCC2)cc1)C1CCc2sc(C(=O)N3CCCC3)cc2C1 (configuration not stated)
26 | 817 | O=C(C1=CN(c2ccc(F)c(Cl)c2)c2ccccc2S1(=O)=O)N1CCCC1
27 | 826 | Cc1cccc(Cn2nc3ccc(S(=O)(=O)N4CCOCC4)cn3c2=O)c1
28 | 975 | CN(C)c1ccc(-c2nc(C3CC(=O)N(c4ccc(F)cc4)C3)no2)cc1 (configuration not stated)
29 | 794 | O=C(Nc1ccccc1C(F)(F)F)N1CCN(c2ccc(=O)n(-c3ccc(F)cc3)n2)CC1
30 | 706 | Cc1c(C(=O)N2CCN(c3ccc(F)cc3)CC2)sc2nc[nH]c(=O)c12
31 | 1310 | COc1cccc(N2CCN(c3ccc(-c4nc(-c5cccc(F)c5)no4)cn3)CC2)c1
32 | 695 | CC(C)CC(=O)N(C)CCc1noc(-c2ccc(C(=O)N3CCOCC3)cc2)n1
33 | 883 | CC1=C(c2ccc(F)cc2)S(=O)(=O)N=C1N1CCCN(C(=O)C2CCCCC2)CC1
34 | 657 | Cc1nn(CC(=O)NCCN2CCCCCC2)c(=O)c2nc(-c3ccccc3)sc12
35 | 722 | CCCc1noc(-c2cccnc2N2CCCN(Cc3cccc(F)c3)CC2)n1
36 | 635 | CCOC(=O)c1c(C)[nH]c(C(=O)N2CCC(C(C)C(=O)NCc3ccc(N(C)C)cc3)CC2)c1C (configuration not stated)
37 | 882 | CCOc1ccc(OCC)c(NC(=O)C2CCN(C(=O)C3Sc4ccccc4NC3=O)CC2)c1 (configuration not stated)
